Measurements reported in PMC4669708 (Cell Death & Disease, 2015).
Where two headings read alike, the source gives them in different places.

Key:
HT-29 cells [1] = assay: TNF-α/Smac mimetic/z-VAD-FMK (TSZ)-induced necroptosis, cell viability; assay type: cell-based, human; details: Homo sapiens, HT-29; TSZ treatment; read-out: EC50 (necroptosis block)
Procedure: (§1) Cells were seeded in 12-, 24- or 96-well plates at proper cell density. For necroptosis or apoptosis assays, cells were incubated with the indicated compound combinations at concentrations stated for 14–24 h. Smac mimetic and z-VAD-FMK were added 30–60 min before treatment with TNF-α, FasL or TRAIL. Cell viability was determined using CellTiter Glo Luminescent Cell Viability Assay (Promega, Fitchburg, WI, USA) according to the manufacturer's instructions. Luminescence was recorded with a SpectraMax M5Multimode plate reader (Molecular Devices, Sunnyvale, CA, USA). For flow cytometry-based determination of viability, cells were harvested, collected by centrifugation, washed once and resuspended in staining buffer (1 × PBS, 10% FBS). Cells were incubated with 0.5 μg/ml PI for 10 min at room temperature (RT) in the dark. Flow cytometric analyses were performed on an LSR Fortessa (BD Biosciences) and analyzed with FlowJo software version 7.6.3 (Tree Star Inc, Ashland, OR, USA). Cell size was evaluated by forward scatter. PI-negative normal-sized cells were considered living and data were normalized to values of untreated controls.

HT-29 cells [2] = assay: Drug toxicity, cell viability 24 h; assay type: cell-based; details: Homo sapiens, HT-29, 24 h
Procedure: as §1

recombinant RIPK1 = molecular target: T1, recombinant RIPK1 (Homo sapiens, UniProt Q13546); assay: Recombinant kinase assay; assay type: biochemical; details: 50 μM ATP; Supplementary Figure 4b
T1 construct: purchased Signalchem R07-10G
T1 sequence (Q13546 1-327 limits assumed): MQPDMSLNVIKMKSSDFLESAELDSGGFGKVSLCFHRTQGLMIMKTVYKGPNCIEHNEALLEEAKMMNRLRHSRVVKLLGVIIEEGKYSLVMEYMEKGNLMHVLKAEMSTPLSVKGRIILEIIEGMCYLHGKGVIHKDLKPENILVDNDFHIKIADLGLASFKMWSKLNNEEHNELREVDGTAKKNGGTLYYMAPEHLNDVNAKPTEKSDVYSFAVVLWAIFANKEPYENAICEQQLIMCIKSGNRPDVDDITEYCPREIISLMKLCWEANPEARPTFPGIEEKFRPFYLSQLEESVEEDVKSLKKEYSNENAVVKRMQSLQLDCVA
Procedure: (§2) Recombinant RIPK1 or RIPK3 protein was incubated with the substrate MBP in kinase assay buffer (40 mM Tris-HCl pH 7.5, 10 mM MgCl2 and 1 mM DTT) in presence of 50 μM ATP, 5 μCi [γ-32 P]ATP and the indicated inhibitors in a total volume of 20 μl. […] The terminated reactions were spotted onto a SAM2 Biotin Capture membrane (Promega) and further processed according to the manufacturer's instructions. […] Data were normalized to a DMSO-treated control sample. For autoradiography, the reactions were stopped by addition of 5 μl 4x Laemmli buffer and incubated for 5 min at 95 °C.

[3] = Chemical proteomics, c-ponatinib drug pull-down, LCMS-MS; assay type: binding, human; details: c-ponatinib matrix, competition with free ponatinib; cells 2 h TNF-α
Procedure: Drug-affinity matrices were prepared as described previously.[51] In brief, 25 nmol of c-ponatinib were immobilized on 50 μl NHS-activated Sepharose 4 Fast Flow beads (GE Healthcare Bio-Sciences AB, Uppsala, Sweden). 10 mg whole cell lysate was used as protein input per replicate. Affinity chromatography and elution were performed in duplicate. After elution, the enriched proteins were reduced with dithiothreitol (DTT) and cysteine residues were alkylated by incubation with iodoacetamide. The samples were digested with modified porcine trypsin (Promega). Five percent of the digested eluates were purified and concentrated by C18 reversed-phase material. Subsequently, samples were analyzed in duplicates by gel-free one-dimensional LCMS.
Precursor and MS/MS peaks were extracted from the RAW files and saved in the MGF format using msconvert tool (ProteoWizard Library v2.1.2708, www.proteowizard.sourceforge.net) for subsequent protein identification. […] The initial peptide identifications were used to deduce independent linear transformations for precursor and fragment masses that would minimize the mean square deviation of measured masses from theoretical. […] A false discovery rate of <1% for protein identifications and <0.1% for peptides (including the ones exported with lower scores) was determined by applying the same procedure against a database of reversed protein sequences. […]

RIPK3 = RIPK3 (Homo sapiens, UniProt Q9Y572); assay: Recombinant kinase assay; assay type: biochemical; parameters: purchased Signalchem R09-10G
RIPK3, sequence (Q9Y572 whole entry): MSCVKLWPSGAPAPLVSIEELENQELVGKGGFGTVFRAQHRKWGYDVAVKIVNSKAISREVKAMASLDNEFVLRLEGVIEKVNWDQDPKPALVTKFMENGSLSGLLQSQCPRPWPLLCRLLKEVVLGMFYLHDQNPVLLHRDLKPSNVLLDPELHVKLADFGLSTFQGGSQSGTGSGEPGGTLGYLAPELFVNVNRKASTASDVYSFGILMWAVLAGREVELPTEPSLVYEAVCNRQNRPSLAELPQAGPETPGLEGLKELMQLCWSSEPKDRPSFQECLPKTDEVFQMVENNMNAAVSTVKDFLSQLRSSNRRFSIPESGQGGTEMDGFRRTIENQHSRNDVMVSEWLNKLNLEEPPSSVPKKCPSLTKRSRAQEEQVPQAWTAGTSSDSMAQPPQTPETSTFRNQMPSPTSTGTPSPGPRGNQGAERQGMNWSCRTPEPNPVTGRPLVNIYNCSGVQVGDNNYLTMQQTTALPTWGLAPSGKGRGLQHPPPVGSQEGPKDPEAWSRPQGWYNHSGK
Procedure: as §2

Cc1ccc(C(=O)Nc2ccc(CN3CCN(C)CC3)c(C(F)(F)F)c2)cc1C#Cc1cnc2cccnn12 [ponatinib, Ponatinib]
EC50 (HT-29 cells [1]): 0.05 µM | IC50 (HT-29 cells [2]; read-out: IC50 (printed in Figure 2e)): 8.89 µM | IC50 (HT-29 cells [2]; read-out: IC50 (toxicity)): 8.9 µM | RIPK1 kinase activity (MBP phosphorylation) (recombinant RIPK1): strongly blocked phosphorylation | kinases identified as specific binders (number) [3]: 38 | non-kinase proteins identified as specific binders (number) [3]: 22 | RIPK3 kinase activity (MBP phosphorylation) (RIPK3; 50 μM ATP, Figure 4e inhibitors at 10 μM): strongly blocked phosphorylation | RIPK3 autophosphorylation (RIPK3; autoradiography, Supplementary Figure 4c): efficiently blocked
